Data set [1] concerns the target T1, C-X-C chemokine receptor type 4 (Homo sapiens, UniProt P61073). Nature of the data set: Displacement of 12G5 mAb from CXCR4 (unknown origin) expressed in CHO cells incubated for 40 mins by spectrophotometric method. It counts as cell-based.
The target of data set [2] is T1, C-X-C chemokine receptor type 4. Briefly: Antagonist activity against CXCR4 in human SUP-T1 cells assessed as inhibition of SDF-1alpha-induced intracellular calcium mobilization by Fluo-4AM dye based fluorescence analysis. It counts as cell-based. The settings on record: filed as antagonist, dose 0.01-10 µM. For orientation: A change in cytosolic calcium serves as a functional read-out for many receptors and channels.

Data set [3] has the same target. Briefly: Antagonist activity against CXCR4 in human SUP-T1 cells assessed as inhibition of SDF-1alpha-induced intracellular calcium mobilization at 10 uM by Fluo-4AM dye based fluorescence analysis. It counts as cell-based. The following applies: filed as antagonist.
For data set [4] the target is unchanged. Nature of the data set: Antagonist activity against CXCR4 in human SUP-T1 cells assessed as inhibition of SDF-1alpha-induced cell migration preincubated with cells for 30 mins followed by incubation with SDF-1alpha for 3 hrs by CellTiter-96 reagent based transwell assay. The following applies: filed as antagonist, time 210.0 min.
Data set [5] shares this target. Briefly: Antagonist activity against CXCR4 in human SUP-T1 cells assessed as inhibition of SDF-1alpha-induced cell migration at 10 uM preincubated with cells for 30 mins followed by incubation with SDF-1alpha for 3 hrs by CellTiter-96 reagent based transwell assay. The following applies: filed as antagonist, time 210.0 min.
Data set [6] has the same target. Briefly: Antagonist activity against EGFP-tagged CXCR4 (unknown origin) transfected in CHO cells assessed as inhibition of SDF-1alpha-induced receptor internalization at 0.01 to 10 uM preincubated for 10 mins followed by SDF-1alpha addition by confocal microscopy. It counts as cell-based. The settings on record: filed as antagonist, dose 0.01-10 µM.
The target is the same in data set [7]. Briefly: Antagonist activity against EGFP-tagged CXCR4 (unknown origin) transfected in CHO cells assessed as inhibition of SDF-1alpha-induced receptor internalization at 10 uM preincubated for 10 mins followed by SDF-1alpha addition by confocal microscopy. The settings on record: filed as antagonist. Type of data set: cell-based.
Data set [8] relates to Human immunodeficiency virus 1. Briefly: Antiviral activity against HIV-1 X4 NL4-3 infected in human PBMC assessed as inhibition of viral replication by measuring reduction in p24 antigen level at 10 uM measured after 5 days by ELISA. It counts as functional, organism-based. The following applies: time 5.0 day.
The subject of data set [9] is Human immunodeficiency virus 1. Briefly: Antiviral activity against HIV-1 R5 Bal-6 infected in human PBMC assessed as inhibition of viral replication by measuring reduction in p24 antigen level at 10 uM measured after 5 days by ELISA. Type of data set: functional, organism-based. The settings on record: time 5.0 day.
Data set [10] is described as follows: Cytotoxicity against human PBMC assessed as reduction in cell viability at 0.016 to 10 uM incubated for 5 days by CellTiter-Blue assay. It counts as toxicity, cell-based. The following applies: 120 h, dose 0.016-10 µM, time 5 day.
Data set [11] relates to C-X-C chemokine receptor type 4 (Homo sapiens), P61073 [F87A]. Briefly: Displacement of 12G5 mAb from CXCR4 F87A mutant (unknown origin) expressed in CHO cells at 200 nM incubated for 40 mins by spectrophotometric method. Type of data set: cell-based.
For data set [12], the system named is C-X-C chemokine receptor type 4 (Homo sapiens), P61073 [W94A]. Nature of the data set: Displacement of 12G5 mAb from CXCR4 W94A mutant (unknown origin) expressed in CHO cells at 200 nM incubated for 40 mins by spectrophotometric method. Type of data set: cell-based.
Data set [13] concerns C-X-C chemokine receptor type 4 (Homo sapiens), P61073 [N119A]. Briefly: Displacement of 12G5 mAb from CXCR4 N119A mutant (unknown origin) expressed in CHO cells at 200 nM incubated for 40 mins by spectrophotometric method. Type of data set: cell-based.
The subject of data set [14] is C-X-C chemokine receptor type 4 (Homo sapiens), P61073 [H113A]. Nature of the data set: Displacement of 12G5 mAb from CXCR4 H113A mutant (unknown origin) expressed in CHO cells at 200 nM incubated for 40 mins by spectrophotometric method. Type of data set: cell-based.
The test system of data set [15] is C-X-C chemokine receptor type 4 (Homo sapiens), P61073 [W161A]. Briefly: Displacement of 12G5 mAb from CXCR4 W161A mutant (unknown origin) expressed in CHO cells at 200 nM incubated for 40 mins by spectrophotometric method. Type of data set: cell-based.
Data set [16] relates to C-X-C chemokine receptor type 4 (Homo sapiens), P61073 [D193A]. Briefly: Displacement of 12G5 mAb from CXCR4 D193A mutant (unknown origin) expressed in CHO cells at 200 nM incubated for 40 mins by spectrophotometric method. Type of data set: cell-based.
Data set [17] concerns C-X-C chemokine receptor type 4 (Homo sapiens), P61073 [W195A]. Nature of the data set: Displacement of 12G5 mAb from CXCR4 W195A mutant (unknown origin) expressed in CHO cells at 200 nM incubated for 40 mins by spectrophotometric method. It counts as cell-based.
In data set [18] the test system is C-X-C chemokine receptor type 4 (Homo sapiens), P61073 [D262N]. Nature of the data set: Displacement of 12G5 mAb from CXCR4 D262N mutant (unknown origin) expressed in CHO cells at 200 nM incubated for 40 mins by spectrophotometric method. It counts as cell-based.
The subject of data set [19] is C-X-C chemokine receptor type 4 (Homo sapiens), P61073 [E288A]. Nature of the data set: Displacement of 12G5 mAb from CXCR4 E288A mutant (unknown origin) expressed in CHO cells at 200 nM incubated for 40 mins by spectrophotometric method. It counts as cell-based.
Data set [20] concerns C-X-C chemokine receptor type 4 (Homo sapiens), P61073 [E288D]. Nature of the data set: Displacement of 12G5 mAb from CXCR4 E288D mutant (unknown origin) expressed in CHO cells at 200 nM incubated for 40 mins by spectrophotometric method. Type of data set: cell-based.
In data set [21] the test system is C-X-C chemokine receptor type 4 (Homo sapiens), P61073 [Y45A]. Nature of the data set: Displacement of 12G5 mAb from CXCR4 Y45A mutant (unknown origin) expressed in CHO cells at 200 nM incubated for 40 mins by spectrophotometric method. Type of data set: cell-based. The following applies: filed as antagonist.
For data set [22], the system named is C-X-C chemokine receptor type 4 (Homo sapiens), P61073 [T117A]. Briefly: Displacement of 12G5 mAb from CXCR4 T117A mutant (unknown origin) expressed in CHO cells at 200 nM incubated for 40 mins by spectrophotometric method. It counts as cell-based. The following applies: filed as antagonist.
In data set [23] the test system is C-X-C chemokine receptor type 4 (Homo sapiens), P61073 [D171A]. Briefly: Displacement of 12G5 mAb from CXCR4 D171A mutant (unknown origin) expressed in CHO cells at 200 nM incubated for 40 mins by spectrophotometric method. Type of data set: cell-based. The following applies: filed as antagonist.
Data set [24] has as its system Human immunodeficiency virus 1. Nature of the data set: Antiviral activity against HIV-1 X4 NL4-3 infected in human PBMC assessed as inhibition of viral replication by measuring reduction in p24 antigen level measured after 5 days by ELISA. It counts as functional, organism-based. The following applies: Human immunodeficiency virus 1, X4 NL4-3, PBMC, 120 h. Background: ELISA stands for enzyme-linked immunosorbent assay.

For data set [25], the system named is Human immunodeficiency virus 1. Briefly: Antiviral activity against HIV-1 R5 Bal-6 infected in human PBMC assessed as inhibition of viral replication by measuring reduction in p24 antigen level at 0.1 to 10 uM measured after 5 days by ELISA. Type of data set: functional, organism-based. The settings on record: dose 0.1-10 µM, time 5.0 day.

Active and inactive are the calls of the source. The rule behind the calls is not given here.

T1 sequence (P61073 whole entry): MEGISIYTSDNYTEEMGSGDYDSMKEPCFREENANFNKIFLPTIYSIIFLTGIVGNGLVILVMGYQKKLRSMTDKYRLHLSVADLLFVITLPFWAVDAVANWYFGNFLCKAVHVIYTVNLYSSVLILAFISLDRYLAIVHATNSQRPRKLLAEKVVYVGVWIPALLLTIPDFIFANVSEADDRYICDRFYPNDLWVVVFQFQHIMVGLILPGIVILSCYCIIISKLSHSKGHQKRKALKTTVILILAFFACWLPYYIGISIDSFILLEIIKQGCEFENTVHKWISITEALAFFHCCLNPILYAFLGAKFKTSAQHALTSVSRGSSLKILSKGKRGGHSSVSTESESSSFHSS
Chain of C-X-C chemokine receptor type 4 (Homo sapiens), P61073 [W195A] (P61073 whole entry W195A): as the sequence (P61073 whole entry) above, with W195A counted along it
Chain of C-X-C chemokine receptor type 4 (Homo sapiens), P61073 [T117A] (P61073 whole entry T117A): as the sequence (P61073 whole entry) above, with T117A counted along it
Chain of C-X-C chemokine receptor type 4 (Homo sapiens), P61073 [N119A] (P61073 whole entry N119A): as the sequence (P61073 whole entry) above, with N119A counted along it
Chain of C-X-C chemokine receptor type 4 (Homo sapiens), P61073 [D262N] (P61073 whole entry D262N): as the sequence (P61073 whole entry) above, with D262N counted along it
Chain of C-X-C chemokine receptor type 4 (Homo sapiens), P61073 [W94A] (P61073 whole entry W94A): as the sequence (P61073 whole entry) above, with W94A counted along it
Chain of C-X-C chemokine receptor type 4 (Homo sapiens), P61073 [E288D] (P61073 whole entry E288D): as the sequence (P61073 whole entry) above, with E288D counted along it
Chain of C-X-C chemokine receptor type 4 (Homo sapiens), P61073 [E288A] (P61073 whole entry E288A): as the sequence (P61073 whole entry) above, with E288A counted along it
Chain of C-X-C chemokine receptor type 4 (Homo sapiens), P61073 [H113A] (P61073 whole entry H113A): as the sequence (P61073 whole entry) above, with H113A counted along it
Chain of C-X-C chemokine receptor type 4 (Homo sapiens), P61073 [D171A] (P61073 whole entry D171A): as the sequence (P61073 whole entry) above, with D171A counted along it
Chain of C-X-C chemokine receptor type 4 (Homo sapiens), P61073 [D193A] (P61073 whole entry D193A): as the sequence (P61073 whole entry) above, with D193A counted along it
Chain of C-X-C chemokine receptor type 4 (Homo sapiens), P61073 [F87A] (P61073 whole entry F87A): as the sequence (P61073 whole entry) above, with F87A counted along it
Chain of C-X-C chemokine receptor type 4 (Homo sapiens), P61073 [Y45A] (P61073 whole entry Y45A): as the sequence (P61073 whole entry) above, with Y45A counted along it
Chain of C-X-C chemokine receptor type 4 (Homo sapiens), P61073 [W161A] (P61073 whole entry W161A): as the sequence (P61073 whole entry) above, with W161A counted along it

In [1], `CC(C)C[C@@H](N)C(=O)NCC(=O)N[C@H](C)C(=O)N[C@H](CO)C(=O)N[C@H](Cc1c[nH]c2ccccc12)C(=O)N[C@H](Cc1cnc[nH]1)C(=O)N[C@H](CCCNC(=N)N)C(=O)N1CCC[C@@H]1C(=O)N[C@H](CC(=O)O)C(=O)N[C@H](CCCCN)C(=O)N[C@H](CCCCN)C(=O)N[C@H](CCCNC(=N)N)C(=O)N(CCCCCC(=O)O)[C@H](CCCCN)C(=O)N[C@H](CCCNC(=N)N)C(=O)N[C@H](CCCCN)C(=O)N[C@H](CCC(N)=O)C(=O)N[C@H](CCCNC(=N)N)C(=O)NCC(=O)N1CCC[C@@H]1C(=O)NCC(=O)N[C@H](CCCNC(=N)N)C(=O)N[C@H](C)C(=O)N[C@H](Cc1ccccc1)C(N)=O` showed an IC50 of 43.4 nM. Besides, the inhibition entry in data set [2] is “Dose-Dependent Effect”; in [3] it was 100%; in data set [4], “Dose-Dependent Effect”; in data set [5] it was 100%; in data set [7], 100%. Further, the inhibition result in [6], in data set [21], in [22] and in [23] was “Active” throughout. The outcome in data set [8] and in data set [9] was Active. The Activity result in data set [10] was “Non-Toxic”. The inhibition result in data set [11], in data set [12], in data set [13], in [14], in data set [15] and in [16] was “inactive” in each case. For the same compound, the inhibition entry in data set [17], in [18], in data set [19] and in data set [20] was “inactive” each time.
As for `CC(C)C[C@@H](N)C(=O)NCC(=O)N[C@H](C)C(=O)N[C@H](CO)C(=O)N[C@H](Cc1c[nH]c2ccccc12)C(=O)N[C@H](Cc1cnc[nH]1)C(=O)N[C@H](CCCNC(=N)N)C(=O)N1CCC[C@@H]1C(=O)N[C@H](CC(=O)O)C(=O)N[C@H](CCCCN)C(=O)N[C@H](CCCCN)C(=O)N[C@H](CCCNC(=N)N)C(=O)N(CCCCCC(=O)O)[C@H](CCCCN[C@@H](CS)C(=O)N[C@@H](C(=O)N[C@H](CCCNC(=N)N)C(=O)N1CCC[C@@H]1C(=O)N[C@H](CC(N)=O)C(=O)N[C@H](CC(N)=O)C(=O)N[C@H](CC(N)=O)C(=O)N[C@@H](C(=O)N[C@H](CCCCN)C(=O)N[C@H](CCCNC(=N)N)C(N)=O)[C@@H](C)O)[C@@H](C)O)C(N)=O`, the IC50 came to 26.8 nM in data set [1] and 10900 nM in [24]. In data set [8], the outcome was Active. Moreover, the outcome in [25] was inactive. In [10], the Activity result is recorded as “Non-Toxic”.

In general, IC50 refers to the concentration that gives 50% inhibition. Usually inhibition stands for the relative decrease from the control value, in per cent.

The record behind these values is ChEMBL document CHEMBL5247608, “HIV-1 gp120-CXCR4 recognition probed with synthetic nanomolar affinity D-peptides containing fragments of gp120 V3 loop” (Eur J Med Chem, 2022).
